13 molecules from patent US20240268388A1, “AGRICULTURAL AND HORTICULTURAL FUNGICIDAL COMPOSITION” (NIPPON SODA CO., LTD., priority 2021, published 2024) can be followed below.

The term inhibition denotes the drop in the measured response relative to a control, in per cent.

For assay [1], the system named is wheat leaf blight pathogen (Septoria tritici). Put plainly: Fungicidal test for wheat leaf blight (microplate, turbidity at 405 nm). The class given is cell-based. The following applies: for inhibition at 6.3 ppm / inhibition at 12.5 ppm / inhibition at 25 ppm / inhibition at 50 ppm / inhibition at 100 ppm: component (I) alone. As for the experimental part: Compounds of component (I) and component (II) were dissolved in dimethyl sulfoxide at 10,000 ppm and diluted with water to the prescribed concentration to prepare a chemical agent solution. A mixture of the prescribed concentration of the chemical agent solution, wheat leaf blight pathogen (Septoria tritici) conidia, and malt extract was prepared on a microplate and incubated at 20° C. in the dark for 3 days. The turbidity at a wavelength of 405 nm was measured with a microplate reader, and the growth of wheat leaf blight pathogen was compared with that of no treatment control to determine the growth inhibition rate. The results are shown in Tables 2 to 7, along with the expected values calculated as below.
Each expected value was calculated from the fungicidal efficacy of a single application of the compound of component (I) and the fungicidal efficacy of a single application of compound of component (II) by using Colby's equation (S. R. Colby, Calculating synergistic and antagonistic responses of herbicide combinations, Weeds, 15, 20-22 pp (1967)).
[formula] • where E represents the expected value of the growth inhibition rate (%) for the composition containing component (I) and component (II), M represents the growth inhibition rate (%) when the component (I) is used alone, and N represents the growth inhibition rate (%) when the component (II) is used alone. When the measured growth inhibition rate (%) for the composition containing component (I) and component (II) is greater than the expected value E, the composition containing components (I) and component (II) should exert a synergistic effect.

Assay [2] has as its system soybean rust pathogen (Phakopsora pachyrhizi). Put plainly: Soybean rust control test (leaf discs). Type of assay: in vivo. As for the experimental part:
Compounds of component (I) and component (II) were dissolved in dimethyl sulfoxide and diluted with water to the prescribed concentration to prepare a chemical agent solution. A mixture of the prescribed concentration of the chemical agent solution and sterile water was prepared on a microplate, and leaf discs cut from soybean leaves were floated on the microplate. Uredospores of soybean rust pathogen (Phakopsora pachyrhizi) were inoculated and incubated at 25° C. for 9 days. The area percentage of lesions was determined by observing uredospore-forming lesions on the leaf discs, and the control value was calculated. The control value was calculated by the following formula:
Control value (%)=100−{Area percentage of lesions in treatment plot/Area percentage of lesions in untreatment plot}×100.
The results are shown in Tables 8 to 18, along with the expected values calculated as below. Each expected values was calculated from the fungicidal efficacy of a single application of compound of component (I) and the fungicidal efficacy of a single application of compound of component (II) by using Colby's equation:
[formula] • where E represents the expected value of the control value for the composition containing component (I) and component (II), M represents the control value (%) when the component (I) is used alone, and N represents the control value (%) when the component (II) is used alone. When the measured control value for the composition containing component (I) and component (II) is greater than the expected value E, the composition containing component (I) and composition (II) should exert a synergistic effect.

Assay [3] relates to cucumber anthracnose pathogen (Colletotrichum lagenarium). Briefly: Fungicidal test for cucumber anthracnose (microplate, turbidity at 405 nm). Type of assay: cell-based. As for the experimental part: The compounds were dissolved in dimethyl sulfoxide to prepare a chemical agent solution.
A mixture of the prescribed concentration of the chemical agent solution, cucumber anthracnose pathogen (Colletotrichum lagenarium) conidia, and Vogel medium was prepared on a microplate and incubated at 20° C. in the dark for 7 days.
Each expected value was calculated using Colby's equation:
[formula] • where E represents the expected value of the growth inhibition rate (%), M represents the growth inhibition rate (%) when the component (I) is used alone, and N represents the growth inhibition rate (%) when the component (II) is used alone.

[4] abbreviates: Table 15, component (II) alone (component (I): None): Azoxystrobin 0.0001, Inpyrfluxam 0.000025, Chlorothalonil 0.0063, Difenoconazole 0.000025, Cyproconazole 0.000025, Tebuconazole 0.000025, Trifloxystrobin 0.0001, Pyraclostrobin 0.0001, Fluazinam 0.0063, Fluxapyroxad 0.000025, Prothioconazole 0.000025, Florylpicoxamid 0.0001, Benzovindiflupyr 0.000025, Mancozeb 0.0063 ppm.
The mark [5] stands for this setting: Table 18, component (II) alone (component (I): None): Azoxystrobin 0.0001, Inpyrfluxam 0.000025, Chlorothalonil 0.0063, Difenoconazole 0.000025, Cyproconazole 0.000025, Tebuconazole 0.000025, Trifloxystrobin 0.0001, Pyraclostrobin 0.0001, Fluazinam 0.0063, Fluxapyroxad 0.000025, Prothioconazole 0.000025, Florylpicoxamid 0.0001, Benzovindiflupyr 0.000025, Mancozeb 0.0063 ppm.

The mark [6] stands for this setting: Zymoseptoria tritici, component (II) alone, read-out: growth inhibition rate.
The mark [7] stands for this setting: Zymoseptoria tritici, component (II) alone, 16 ppm, read-out: growth inhibition rate.
[8] abbreviates: Zymoseptoria tritici, read-out: growth inhibition rate.
Where [9] appears, read: Table 14, component (II) alone (component (I): None): Inpyrfluxam 0.00025, Chlorothalonil 0.006, Thiophanate-methyl 0.0001, Tebuconazole 0.000025, Trifloxystrobin 0.0001, Fluazinam 0.006, Prothioconazole 0.000025, Florylpicoxamid 0.0001, Metominostrobin 0.0004 ppm.
Setting [10] is: Table 16, component (II) alone (component (I): None): Inpyrfluxam 0.000025, Chlorothalonil 0.006, Thiophanate-methyl 0.0001, Tebuconazole 0.000025, Trifloxystrobin 0.0001, Fluazinam 0.006, Prothioconazole 0.000025, Florylpicoxamid 0.0001, Metominostrobin 0.0004 ppm.
Setting [11] is: Table 17, component (II) alone (component (I): None): Inpyrfluxam 0.000026, Chlorothalonil 0.02, Thiophanate-methyl 0.0004, Tebuconazole 0.0001, Trifloxystrobin 0.0001, Fluazinam 0.006, Prothioconazole 0.000025, Florylpicoxamid 0.0001, Metominostrobin 0.0004 ppm.
Setting [12] is: Zymoseptoria tritici, component (II) alone, 0.25 ppm, read-out: growth inhibition rate.

Regarding `O=S(=O)([O-])[O-].[Cu+2]` [Copper sulfate, copper sulfate], the growth inhibition rate in assay [1] (component (II) alone, 0.25 ppm) was found to be 8%; in assay [1] (component (II) alone, 1 ppm), 24%; in assay [1] (component (II) alone, 16 ppm) it was 73%.
In the case of `Cn1cc(C(=O)Nc2cccc3c2[C@@H]2CC[C@H]3C2=C(Cl)Cl)c(C(F)F)n1` (racemic) [Benzovindiflupyr, benzovindiflupyr, reference compound], the growth inhibition rate in assay [1] (component (II) alone, 0.01 ppm) worked out at 48%; in assay [1] (component (II) alone, 0.04 ppm), 65%. The control value in assay [2] (setting [4]) and in assay [2] (setting [5]) was 50% each time.
As to `CC1COC(Cn2cncn2)(c2ccc(Oc3ccc(Cl)cc3)cc2Cl)O1` (stereo not shown) [Difenoconazole, difenoconazole], in assay [1] (Zymoseptoria tritici, component (II) alone, 0.004 ppm, read-out: growth inhibition rate), the inhibition at 0.004 ppm worked out at 75%. The inhibition at 0.04 ppm in assay [1] (Zymoseptoria tritici, component (II) alone, 0.04 ppm, read-out: growth inhibition rate) worked out at 75%. In addition, the inhibition at 4 ppm in assay [1] (setting [6]) stood at 85%. Also, the inhibition at 16 ppm in assay [1] (setting [7]) is 83%. Moreover, the inhibition at 0.0002 ppm in assay [1] (Zymoseptoria tritici, component (II) alone, .0002 ppm (also printed 0002), read-out: growth inhibition rate) stood at 69%. For the same molecule, the control value in assay [2] (setting [4]) was 75%; in assay [2] (setting [5]), 0%.
Consider `Cn1cc(C(=O)Nc2ccc(F)cc2-c2ccc(Cl)c(Cl)c2)c(C(F)F)n1` [Bixafen, bixafen], for which the growth inhibition rate in assay [1] (component (II) alone, 0.004 ppm) is given as 27%.
`CCON=C1CN(C(=O)Cc2ccc(-c3noc(C(F)(F)F)n3)cc2)C1` [Compound 1]: in assay [1] (setting [8]), the inhibition at 6.3 ppm worked out at 44%, the inhibition at 12.5 ppm stood at 58%, the inhibition at 25 ppm was found to be 70% and the inhibition at 50 ppm was determined as 82%. Besides, the inhibition at 100 ppm in assay [1] (setting [8]) was found to be 90%. The control value in assay [2] (component (I) alone, 0.0063 ppm) is listed as 12%. In addition, in assay [2] (component (I) alone, 0.025 ppm), the control value is 48%. In addition, the control value in assay [2] (component (I) alone, 0.1 ppm) is 75%. In assay [2] (component (I) alone, 0.4 ppm), the control value is recorded as 99%.
As for inpyrfluxam [reference compound], the growth inhibition rate turned out to be 24% in assay [1] (component (II) alone, 0.01 ppm) and 49% in assay [1] (component (II) alone, 0.04 ppm). Further, the control value in assay [2] (setting [9]) worked out at 16%; in assay [2] (setting [4]) it was 50%; in assay [2] (setting [10]), 16%; in assay [2] (setting [11]), 16%; in assay [2] (setting [5]), 50%.
For the molecule `CO/C=C(/C(=O)OC)c1ccccc1Oc1cc(Oc2ccccc2C#N)ncn1` [Azoxystrobin, azoxystrobin, reference compound], the growth inhibition rate is listed as 10% in assay [1] (component (II) alone, 0.06 ppm) and 10% in assay [1] (component (II) alone, 1 ppm). The control value in assay [2] (setting [4]) is 33%; in assay [2] (setting [5]), 0%.
Consider `Fc1ccc([C@]2(Cn3cncn3)O[C@H]2c2ccccc2Cl)cc1` (racemic) [Epoxiconazole, epoxiconazole], for which, in assay [1] (Zymoseptoria tritici, component (II) alone, 0.02 ppm, read-out: growth inhibition rate), the inhibition at 0.02 ppm came out at 27%. For the same molecule, in assay [1] (setting [6]), the inhibition at 64 ppm was 94%.
For the molecule `Cc1ccc(-c2c(Cl)nc(C#N)n2S(=O)(=O)N(C)C)cc1` [Cyazofamid, cyazofamid], the inhibition at 0.25 ppm in assay [1] (setting [12]) was found to be 0%. In addition, in assay [1] (setting [6]), the inhibition at 4 ppm was determined as 6% and the inhibition at 64 ppm is 27%. Also, the inhibition at 16 ppm in assay [1] (setting [7]) turned out to be 4%.
Consider `CCCOC/C(=N\c1ccc(Cl)cc1C(F)(F)F)n1ccnc1` [Triflumizole, triflumizole], for which the inhibition at 0.06 ppm in assay [1] (Zymoseptoria tritici, component (II) alone, 0.06 ppm, read-out: growth inhibition rate) stood at 12%. Moreover, in assay [1] (setting [12]), the inhibition at 0.25 ppm turned out to be 11%.
For the molecule `O=C(Cc1ccc(-c2noc(C(F)(F)F)n2)cc1)N1CCC(=NOC2CCCCO2)CC1` (stereo not shown) [Compound 2], in assay [1] (setting [8]), the inhibition at 6.3 ppm was 34%, the inhibition at 12.5 ppm is 46%, the inhibition at 25 ppm was found to be 52% and the inhibition at 50 ppm is 59%. Also, in assay [1] (setting [8]), the inhibition at 100 ppm was 62%.
`COC(=O)NC(=S)Nc1ccccc1NC(=S)NC(=O)OC` [Thiophanate-methyl]: the results for the control value in assay [2] (setting [9]), in assay [2] (setting [10]) and in assay [2] (setting [11]) were 27%, 27% and 66%, respectively. In addition, the growth inhibition rate in assay [3] (Table 19, component (II) alone (component (I): None): Ipflufenoquin 0.000026, Iminoctadine trialbesilate 0.0032, Cyflufenamid 10, Cyprodinil 0.00013, Potassium bicarbonate 0.08, Thiophanate-methyl 0.08, Picarbutrazox 0.016, Fludioxonil 0.0032, Florylpicoxamid 0.0032, Metyltetraprole 0.08, Mefentrifluconazole 0.4 ppm) is reported as 0%; in assay [3] (Table 20, component (II) alone (component (I): None): Ipflufenoquin 0.00064, Iminoctadine trialbesilate 0.0032, Cyflufenamid 10, Cyprodinil 0.00013, Potassium bicarbonate 0.08, Thiophanate-methyl 0.4, Picarbutrazox 0.016, Fludioxonil 0.0032, Florylpicoxamid 0.0032, Metyltetraprole 0.08, Mefentrifluconazole 0.4 ppm) it was 0%; in assay [3] (Table 21, component (II) alone (component (I): None): Ipflufenoquin 0.00064, Iminoctadine trialbesilate 0.0032, Cyflufenamid 10, Cyprodinil 0.00013, Potassium bicarbonate 0.08, Thiophanate-methyl 0.4, Picarbutrazox 0.00064, Fludioxonil 0.0032, Florylpicoxamid 0.0032, Metyltetraprole 0.08, Mefentrifluconazole 0.4 ppm), 0%; in assay [3] (Table 22, component (II) alone (component (I): None): Ipflufenoquin 0.00064, Iminoctadine trialbesilate 0.0032, Cyflufenamid 10, Cyprodinil 0.00013, Potassium bicarbonate 0.08, Thiophanate-methyl 0.4, Picarbutrazox 0.00064, Fludioxonil 0.0032, Florylpicoxamid 0.0032, Metyltetraprole 0.08, Mefentrifluconazole 0.4 ppm) it was 0%; in assay [3] (Table 23, component (II) alone (component (I): None): Ipflufenoquin 0.00064, Iminoctadine trialbesilate 0.0032, Cyflufenamid 10, Cyprodinil 0.000026, Potassium bicarbonate 0.08, Thiophanate-methyl 0.4, Picarbutrazox 0.00064, Fludioxonil 0.00064, Florylpicoxamid 0.0032, Metyltetraprole 0.08, Mefentrifluconazole 0.4 ppm), 0%; in assay [3] (Table 24, component (II) alone (component (I): None): Ipflufenoquin 0.00064, Iminoctadine trialbesilate 0.0032, Cyflufenamid 10, Cyprodinil 0.00013, Potassium bicarbonate 0.08, Thiophanate-methyl 0.4, Picarbutrazox 0.00064, Fludioxonil 0.00013, Florylpicoxamid 0.0032, Metyltetraprole 0.08, Mefentrifluconazole 0.4 ppm), 0%.
In the case of `CO/C=C(/C(=O)OC)c1ccccc1COc1cccc(C(F)(F)F)n1` [Picoxystrobin, picoxystrobin], the growth inhibition rate in assay [1] (component (II) alone, 0.02 ppm) came out at 2%; in assay [1] (component (II) alone, 0.06 ppm), 3%; in assay [1] (component (II) alone, 0.25 ppm) it was 8%; in assay [1] (component (II) alone, 1 ppm), 8%.
